Results reported in patent US20210255193A1, “LYSINE REACTIVE PROBES AND USES THEREOF” (The Scripps Research Institute, priority 2017, published 2021).

How the values were obtained:
[1] = molecular target: T1, interaction between SIN3A and TGIF2 (Homo sapiens, UniProt Q96ST3); assay: Co-IP experiment, anti-Myc western blot; type: binding; details: anti-Myc blotting
T1 construct: flag-SIN3A or the indicated Flag-SIN3A mutants (a.a. 1-400), or Flag-GFP, were co-expressed in HEK 293T with Myc-TGIF2; expressed in transfected cells; host or cells: HEK 293T
T1 sequence (Q96ST3 1-400): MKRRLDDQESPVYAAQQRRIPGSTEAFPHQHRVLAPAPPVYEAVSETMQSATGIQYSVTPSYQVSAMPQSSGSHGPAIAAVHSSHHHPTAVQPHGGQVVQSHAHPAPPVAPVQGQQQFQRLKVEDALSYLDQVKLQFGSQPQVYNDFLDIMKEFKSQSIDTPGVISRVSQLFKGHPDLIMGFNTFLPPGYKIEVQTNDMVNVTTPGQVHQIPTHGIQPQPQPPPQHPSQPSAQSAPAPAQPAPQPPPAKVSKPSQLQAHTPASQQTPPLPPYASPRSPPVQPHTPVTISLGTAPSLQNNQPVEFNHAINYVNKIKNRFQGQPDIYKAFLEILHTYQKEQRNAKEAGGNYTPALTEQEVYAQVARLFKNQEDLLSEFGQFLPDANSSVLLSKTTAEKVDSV
Description: (§1) Co-IP experiment for the interaction between SIN3A and TGIF1 and TGIF2. 6 cm dishes of HEK 293T cells were transfected at 40% confluency with 600 ng of FLAG-GFP, FLAG-SIN3A WT, K155W, or K155R construct, and 600 ng of MYC-TGIF1 or MYC-TGIF2 as indicated. After 48 hours, cells were lysed and enriched as described above. Following elution in 40 μL urea, 15 μL of loading buffer was added to samples. 15 μL of both input (10%) and outputs were loaded onto an SDS-PAGE gel.
(§2) Western blotting. Proteins were resolved by SDS-PAGE (3 h, 300 V) and transferred to nitrocellulose membranes (90 min, 60 V), blocked with 5% milk in TBS-T and probed with the indicated antibodies in 5% milk in TBS-T. The primary antibodies and the dilutions used are as follows: anti-Flag (Sigma Aldrich, F1804, 1:3,000), anti-Myc (Cell Signalling, 2272S, 1:5,000), anti-actin (Cell Signaling, 3700, 1:3,000) and anti-GAPDH (Santa Cruz, 32233, 1:10,000). Blots were incubated with primary antibodies overnight at 4° C. with rocking and were then washed (3×5 min, TBS-T) and incubated with secondary antibodies (LICOR, IRDye 800CW or IRDye 680LT, 1:10,000) for 1 h at ambient temperature. Blots were further washed (3×5 min, TBST) and visualized on a LICOR Odyssey Scanner. Relative band intensities were quantified using ImageJ software.

[2] = molecular target: T2, interaction between SIN3A and TGIF1 (Homo sapiens, UniProt Q96ST3); assay: Co-IP experiment, anti-Myc western blot; type: binding; details: anti-Myc blotting
T2 construct: flag-SIN3A or the indicated Flag-SIN3A mutants (a.a. 1-400), or Flag-GFP, were co-expressed in HEK 293T cells with Myc-TGIF1 or Myc-TGIF2; expressed in transfected cells; host or cells: HEK 293T
T2 sequence (Q96ST3 1-400): as above
Description: as §1, §2

[3] = molecular target: T3, interaction between SIN3A and TGIF1 (Homo sapiens, UniProt Q96ST3, K155R); assay: Co-IP experiment, anti-Myc western blot; type: binding; details: K155R SIN3A
T3 construct: flag-SIN3A or the indicated Flag-SIN3A mutants (a.a. 1-400), or Flag-GFP, were co-expressed in HEK 293T cells with Myc-TGIF1 or Myc-TGIF2; expressed in transfected cells; host or cells: HEK 293T
T3 sequence (Q96ST3 1-400 K155R): as the sequence (Q96ST3 1-400) above, with K155R counted along it
Description: as §1, §2

[4] = molecular target: T4, NUDT2 (Homo sapiens, UniProt P50583); assay: NUDT2 functional assay; type: biochemical; details: substrate assay
T4 construct: expressed in transfected cells; host or cells: HEK 293T, transient transfection, soluble lysate; synthesized gene (IDT)
T4 sequence (P50583 whole entry): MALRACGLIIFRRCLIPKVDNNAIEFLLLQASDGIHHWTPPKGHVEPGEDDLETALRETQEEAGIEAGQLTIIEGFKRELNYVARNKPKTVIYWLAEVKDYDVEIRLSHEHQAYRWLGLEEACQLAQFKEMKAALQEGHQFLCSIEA
Description: NUDT2 functional assay. NUDT2 activity was measured with a published assay using a fluorogenic substrate. For inhibitor experiments, 50 μl of soluble proteome (initial total protein concentration: 1 mg ml^−1) from HEK 293T cells expressing NUDT2 (WT or K89R mutant) or mock transfected cells (empty vector; negative control) were incubated with 1 μl 50× of the compound in DMSO or DMSO for the positive or negative control (lysate transfected with empty vector) for 1 h at room temperature. Lysates were diluted 4000× with dilution buffer and 64 μl were added into a black 384 well plate. 16 μl of fluorogenic substrate (5 μM) were added to start the reaction. The fluorescence intensity with excitation at 530 nm and emission at 563 nm was measured every minute for 30 min.
Calculation of relative activity or percent inhibition. For PNPO, PFKP, NUDT2 and G6PD, the slope of the linear regression of the linear portion of the absorbance or fluorescence over time was used as measure their activity. Apparent activity was calculated relative to the WT. Percent inhibition was calculated relative to the positive and negative control and used to calculate IC50 values by nonlinear regression analysis from a dose-response curve generated using GraphPad Prism 7.

For `O=C(Oc1c(F)c(F)c(F)c(F)c1F)c1cc(C(F)(F)F)cc(C(F)(F)F)c1` [fragment 21, Pentafluorophenyl 3,5-bis(trifluoromethyl)benzoate], the “co-immunoprecipitation of TGIF2 with SIN3A” value [1] was “partial blockade”, the “co-immunoprecipitation of TGIF1 with SIN3A” value [2] was “blocked the co-immunoprecipitation of TGIF1” and the “effect on SIN3A-TGIF1 interaction, K155R mutant” value [3] was “conferred resistance to the effects of 21”.
With `COC(=O)NC(=NC(=O)OCC1c2ccccc2-c2ccccc21)n1cccn1` [fragment 49, N-Methoxycarbonyl-N′-9-fluorenylmethoxycarbonyl-pyrazole-1-carboxamidine] the “IC50, inhibition of NUDT2 activity” value [4] was “equivalent IC50 value”.
